Like-named read-outs stand apart in the source and are kept apart here. No end group written: not given here.

We go through one substance from article PMC11187126, “Structure and dynamics of the pyroglutamylated RF-amide peptide QRFP receptor GPR103” (Nature Communications, 2024).

This test concerns the target T1, GPR103 E203^ECL2A/Q211^5.35E/E297^6.59A (Homo sapiens, UniProt Q96P65, E203A/E297A/Q211E).
T1 construct: we used human full-length QRFPR-encoding plasmids; expressed in transfected cells; host or cells: HEK293 cells (HEK293A in the flow cytometry section), pCAGGS vector
T1 sequence (Q96P65 1-431 E203A/Q211E/E297A): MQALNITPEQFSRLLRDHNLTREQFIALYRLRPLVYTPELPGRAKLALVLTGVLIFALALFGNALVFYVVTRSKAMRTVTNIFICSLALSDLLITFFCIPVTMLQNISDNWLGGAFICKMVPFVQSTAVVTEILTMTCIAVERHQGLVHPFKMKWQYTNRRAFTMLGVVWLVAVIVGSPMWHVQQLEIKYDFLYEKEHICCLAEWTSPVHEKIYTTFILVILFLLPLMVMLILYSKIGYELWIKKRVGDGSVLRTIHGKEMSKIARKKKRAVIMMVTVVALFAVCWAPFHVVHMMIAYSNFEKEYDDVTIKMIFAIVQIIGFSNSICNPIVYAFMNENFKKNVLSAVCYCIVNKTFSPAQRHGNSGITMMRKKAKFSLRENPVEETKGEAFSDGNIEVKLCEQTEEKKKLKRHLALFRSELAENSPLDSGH
In words: TGFα shedding assay; Exp. level >WT (1:1). It is filed as cell-based. On the procedure: For the TGFα shedding assay and the flow cytometry analysis, we used human full-length QRFPR-encoding plasmids. Specifically, GPR103 was N-terminally modified with an HA signal sequence followed by a FLAG epitope and then a flexible linker ([…]; the FLAG epitope is underlined) and inserted into the pCAGGS vector. Plasmid encoding GPR103 mutants were generated using Quickchange Site-Directed Mutagensis kit (Agilent).
The TGFα shedding assay was performed as described previously with minor modifications. Plasmid transfection was performed in a 6-well plate with a mixture of 500 ng (per well in a 6-well plate) AP-TGFα-encoding plasmid and 200 ng GPR103-encoding plasmid. After 1-day culture, the transfected cells were harvested by trypsinization, pelleted by centrifugation at 190 × g for 5 min, and washed once with 5 mM HEPES (pH 7.4)-containing Hank’s Balanced Salt Solution (HBSS). After centrifugation, the cells were resuspended in 8 mL of the HEPES-containing HBSS. The cell suspension was seeded in a 96-well culture plate (cell plate) at a volume of 90 μL (per well hereafter) and incubated in a 37 °C incubator with 5% CO2 for 30 min. […] After spinning the cell plates at 190 × g for 2 min, 80 μL of conditioned media was transferred to an empty 96-well plate (conditioned media (CM) plate). Then, 80 μL of AP reaction solution (10 mM p-nitrophenylphosphate (p-NPP), 120 mM Tris-HCl (pH 9.5), 40 mM NaCl, and 10 mM MgCl2) was dispensed into the cell plates and the CM plates. Absorbance at 405 nm of the plates was measured using a microplate reader (SpectraMax 340 PC384, Molecular Devices) before and after 1-h incubation at room temperature. Ligand-induced AP-TGFα release was calculated by subtracting spontaneous AP-TGFα release signal from ligand-induced AP-TGFα release signal. The AP-TGFα release signals were fitted to a four-parameter sigmoidal concentration–response curve, using the Prism 10 software (GraphPad Prism). For each replicate experiment, the pEC50 parameter (negative logarithmic values of EC50 values) of the individual GPR103 mutants were normalized to that of the wild-type GPR103 performed in parallel, and resulting ∆pEC50 values were used to denote ligand response activity of the mutants. […]
Exp. le vel: WT (1:5 0)Exp. le vel: WT (1:5 0)Exp. le vel: WT (1:5 0)Exp. le vel: WT (1:2 0)Exp. le vel: WT (1:2 0)Exp. le vel: WT (1:1 0) […]
L1 4N - t e r mA F2 5N - t e r mA I 2 6N - t e r mA Y 2 9N - t e r mA C 9 82 .5 7A T10 22 .6 1A Exp . l eve l: WT (1 :5)Exp . l evel : >WT (1 :1)Exp. le vel: WT (1:2 0)Exp. le vel: WT (1:2 0)Exp. le vel: WT (1:5 0)Exp . l eve l: WT (1 :1) […]
Exp. le vel: WT (1:1 0)Exp. le vel: WT (1:2 0) C 1 1 83 .2 5AExp. le vel: WT (1:5 0)Exp. le vel: WT (1:5 0)Exp. le vel: WT (1:2 0)Exp . l eve l: WT (1 :5) […]
Exp. le vel: WT (1:5 0)Exp. le vel: WT (1:1 0)Exp. le vel: WT (1:5 0) E203ECL2AExp . l evel : >WT (1 :1)Exp. le vel: WT (1:5 0)Exp. le vel: WT (1:5 0) […]
Exp . l eve l: WT (1 :1) F28Exp. le vel: WT (1:5 0) C 2 8 56 .4 7AExp. le vel: WT (1:2 0) WExp. le vel: WT (1:2 0) F28Exp. le vel: WT (1:5 0)Exp . l evel : >WT (1 :1) […]
Exp. le vel: WT (1:5 0)Exp. le vel: WT (1:5 0) C 3 2 77 .4 8AExp . l eve l: WT (1 :5)Exp . l evel : >WT (1 :1)Exp . l evel : >WT (1 :1) […]
Suppl eme nt ary Figure 1 | Mutational analysis of GPR103. […]
mutants. Data are presented as mean values ± SEM, normally n=3-5; dots), each performed in triplicate. b-d Cell-surface expression (b) and QRFP26-in-duced activation of GPR103 (c, d) were analyzed by the flow cytometry and the TGFα shedding assay, respectively. From the concentration–response curves (a), Emax (c) and ΔpEC50 (d) values relative to the wild type were calculated. Colors in the mutant bars indicate an expression level matching to that of titrated wild type. Statistical analyses were performed using the ordinary one-way ANOVA followed by Dunnett tests with the expression-matched […]

The EC50 is the concentration that produces a half-maximal response. Regarding TSGPLGNLAEELNGYSRKKGGFSFRF-NH2 [QRFP26], the Emax by setting is: (Exp. #1) 103.81 % WT; (Exp. #2) 100.88 % WT; (Exp. #3) 112.76 % WT; (mean, read-out: Emax) 106%; (n = 3, read-out: Emax) 109 ± 2.9%. Also, the response (n = 3) was half-maximal at 427 nM (EC50).
